Experimental data as given in US20050244938A1, “Manzamine-producing actinomycetes” (priority 2002, published 2005).
Values after ≈ are worked out from the molar mass of the structure shown. Like-named read-outs stand apart in the source and are kept apart here.

Legend:
[1] = system: Mycobacterium tuberculosis (H37Rv); experiment: microplate Alamar Blue assay, in vitro activity against Mycobacterium tuberculosis; assay type: cell-based
[2] = system: Plasmodium falciparum (D6 clone); experiment: in vitro antimalarial activity, D6 clone; assay type: cell-based; details: for IC50: Plasmodium falciparum
[3] = system: P. falciparum (chlorine-resistant W2 clone); experiment: in vitro antimalarial activity, resistant W2 clone; assay type: cell-based, Plasmodium falciparum; details: NA = not active; for IC50: Plasmodium falciparum, read-out: P. falciparum (chlorine-resistant W2 clone) in vitro IC 50
toxicity (no method) = details: qualitative statement
Nocardia sp. ATCC 21145 = experiment: microbial transformation study to model human metabolism; details: monitored by TLC, metabolite identical to ent-12,34-oxamanzamine F (2)
Procedure: (§1) In order to model the human metabolism of the manzamines and to generate additional analogs for biological evaluation, microbial transformation studies were performed for ent-8-hydroxymanzamine A (El Sayed, et al., 2001) (3). Thirty-three growing microbial cultures were screened for their potential to bioconvert 3 to new metabolites.

[4] = system: Fusarium oxysporium ATCC 7601; experiment: as above; details: monitored by TLC, metabolite identical to ent-12,34-oxamanzamine F (2)
Procedure: as §1

[5] = D6 clone, in vitro, NA = not active

## O[C@]12C=C(c3nccc4c3[nH]c3ccccc34)[C@@H]3CCN(CCCC/C=C\CC1)C[C@@]31C[C@@H]3/C=C\CCCCN3[C@H]12 [Manzamine A, manzamine A]
[1]
  Mycobacterium tuberculosis (H37Rv) MIC: 1.53 µg/mL
[2]; [5]
  Plasmodium falciparum (D6 clone) in vitro IC 50: 0.0045 µg/mL
[3]
  P. falciparum (chlorine-resistant W2 clone) in vitro IC 50: 0.008 µg/mL

## O[C@]12C=C(c3nccc4c3[nH]c3ccccc34)C3CCN(CCCC/C=C\CC1)C[C@@]31C[C@]34CC[C@H](CCCN3[C@H]12)O4 (some centres unmarked) [6-Deoxymanzamine X, 6-deoxymanzamine X]
[1]
  Mycobacterium tuberculosis (H37Rv) MIC: 1.77 µg/mL
[2]; [5]
  Plasmodium falciparum (D6 clone) in vitro IC 50: 1.3 µg/mL
[3]
  P. falciparum (chlorine-resistant W2 clone) in vitro IC 50: 1.4 µg/mL

## ircinol A
Toxicity (no method)
  toxicity: minimal toxicity
[1]
  Mycobacterium tuberculosis (H37Rv) MIC: 1.93 µg/mL
[2]; [5]
  Plasmodium falciparum (D6 clone) in vitro IC 50: 2.4 µg/mL
[3]
  P. falciparum (chlorine-resistant W2 clone) in vitro IC 50: 3.1 µg/mL

## O=C1CCCN2[C@@H](CC1)C[C@]13CN4CCCC/C=C\CC[C@](O)(C=C(c5nccc6c5[nH]c5ccccc56)[C@@H]1CC4)[C@H]23 [Manzamine E, manzamine E]
[1]
  Mycobacterium tuberculosis (H37Rv) MIC: 3.76 µg/mL
[2]; [5]
  Plasmodium falciparum (D6 clone) in vitro IC 50: 3.4 µg/mL
[3]
  P. falciparum (chlorine-resistant W2 clone) in vitro IC 50: 4.76 µg/mL

## (+)-8-hydroxymanzamine A
[1]
  Mycobacterium tuberculosis (H37Rv) MIC: 0.91 µg/mL
[2]; [5]
  Plasmodium falciparum (D6 clone) in vitro IC 50: 0.006 µg/mL
[3]
  P. falciparum (chlorine-resistant W2 clone) in vitro IC 50: 0.008 µg/mL

## C[C@@H]1CC[C@H]2[C@@H](C)C(=O)O[C@@H]3O[C@@]4(C)CC[C@@H]1[C@]32OO4 [Artemisinin]
[2]; D6 clone, in vitro, NA = not active, read-out: Plasmodium falciparum (D6 clone) in vitro IC 50
  IC50: 0.01 µg/mL (≈ 0.0354 µM)
[3]
  IC50: 0.0063 µg/mL (≈ 0.0223 µM)

## ent-12,34-oxamanzamine E [ent-12,34-Oxamanamine E (1)]
[1]
  Mycobacterium tuberculosis (H37Rv) MIC: 128 µg/mL

## CCN(CC)CCCC(C)Nc1ccnc2cc(Cl)ccc12 (centres unmarked) [Chloroquine]
[2]; D6, read-out: Plasmodium falciparum (D6 clone) in vitro IC 50
  IC50: 0.0155 µg/mL (≈ 0.0485 µM)
[3]
  IC50: 0.17 µg/mL (≈ 0.531 µM)

## O=C1CCCN2[C@H]3[C@]45CN6CCCC/C=C\CC[C@]3(C=C(c3nccc7c3[nH]c3c(O)cccc37)[C@H]4CC6)O[C@]2(CC1)C5 (single isomer, unassigned; ent-12) [ent-12,34-Oxamanzamine F (2), ent-12,34-oxamanzamine F]
[1]
  Mycobacterium tuberculosis (H37Rv) MIC: 12.5 µg/mL
[2]; [5]
  Plasmodium falciparum (D6 clone) in vitro IC 50: 0.84 µg/mL
[3]
  P. falciparum (chlorine-resistant W2 clone) in vitro IC 50: 1.1 µg/mL

## O=CC1=C[C@@]2(O)CC/C=C\CCCCN3CC[C@@H]1[C@]1(CC4/C=C\CCCCN4[C@H]12)C3 (some centres unmarked) [Ircinal A, ircinal A]
[1]
  Mycobacterium tuberculosis (H37Rv) MIC: 30.2 µg/mL

## ent-8-hydroxymanzamine A [ent-8-hydroxymanzamine A (3)]
Nocardia sp. ATCC 21145
  bioconversion by growing microbial culture: exhaustively metabolize
[1]
  Mycobacterium tuberculosis (H37Rv) MIC: 3.13 µg/mL
[4]
  bioconversion by growing microbial culture: exhaustively metabolize

## C1=C(c2nccc3c2[nH]c2ccccc23)[C@@H]2CCN3CCCC/C=C\CC[C@]14O[C@@]15/C=C\CCCCN1[C@@H]4[C@]2(C3)C5 [12,34-oxamanzamine A (4), 12,34-oxamanzamine A]
[2]; [5]
  Plasmodium falciparum (D6 clone) in vitro IC 50: 4.76 µg/mL

## O=C1CCCN2[C@@H](CC1)C[C@]13CN4CCCC/C=C\CC[C@](O)(C=C(c5nccc6c5[nH]c5c(O)cccc56)C1CC4)[C@H]23 (some centres unmarked) [Manzamine F, manzamine F]
[1]
  Mycobacterium tuberculosis (H37Rv) MIC: 2.56 µg/mL
[2]; [5]
  Plasmodium falciparum (D6 clone) in vitro IC 50: 0.78 µg/mL
[3]
  P. falciparum (chlorine-resistant W2 clone) in vitro IC 50: 1.7 µg/mL
